For 16 compounds, EC50 and Emax results are on record in US10208019B2, “GLP-1 receptor agonists and uses thereof” (Pfizer Inc., priority 2016, dated 2019).

The structures appear in SMILES notation.

In the assay the target is human GLP-1R (Homo sapiens, UniProt P43220, G168S). Kind of assay: CHO GLP-1R Clone H6—Assay 1: HTRF cAMP cell-based functional agonist assay (high GLP-1R density). The settings on record: for EC50: read-out: Assay 1 EC50, CHO GLP-1R Clone H6, cAMP HTRF, geometric mean; for Emax: read-out: Assay 1 Emax (%), CHO GLP-1R Clone H6, relative to saturating concentration of full agonist GLP-1 (1 μM), arithmetic mean.
Sequence of human GLP-1R (P43220 24-463 G168S limits assumed): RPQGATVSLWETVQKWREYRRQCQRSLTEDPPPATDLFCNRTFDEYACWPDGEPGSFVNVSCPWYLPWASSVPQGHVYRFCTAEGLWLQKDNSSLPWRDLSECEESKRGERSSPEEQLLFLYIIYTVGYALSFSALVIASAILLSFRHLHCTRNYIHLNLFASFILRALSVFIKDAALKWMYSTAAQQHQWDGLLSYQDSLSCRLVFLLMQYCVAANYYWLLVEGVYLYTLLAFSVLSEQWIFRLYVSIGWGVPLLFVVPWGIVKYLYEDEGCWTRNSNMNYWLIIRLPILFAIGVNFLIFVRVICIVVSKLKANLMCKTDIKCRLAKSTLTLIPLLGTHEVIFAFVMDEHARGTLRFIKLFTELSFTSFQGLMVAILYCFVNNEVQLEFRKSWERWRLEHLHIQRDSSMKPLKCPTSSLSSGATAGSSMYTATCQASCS

For the compound `CC(c1nncn1C)n1c(CN2CCC(c3cccc(OCc4ccc(Cl)cc4F)n3)CC2)nc2ccc(C(=O)O)cc21` (centres unmarked) [Example 11A-52, 2-[(4-{6-[(4-chloro-2-fluorobenzyl)oxy]pyridin-2-yl}piperidin-1-yl)methyl]-1-[1-(4-methyl-4H-1,2,4-triazol-3-yl)ethyl]-1H-benzimidazole-6-carboxylic acid], the EC50 amounted to 440 nM and the Emax amounted to 86%.

Consider `Cn1cnnc1CCn1c(CN2CCC(c3cccc(OCc4ccc(Cl)cc4F)n3)CC2)nc2ccc(C(=O)O)cc21` [Example 11A-53, 2-[(4-{6-[(4-chloro-2-fluorobenzyl)oxy]pyridin-2-yl}piperidin-1-yl)methyl]-1-[2-(4-methyl-4H-1,2,4-triazol-3-yl)ethyl]-1H-benzimidazole-6-carboxylic acid], for which the EC50 was 450 nM and the Emax worked out at 71%.

As for `CCN1CCC[C@@H]1Cn1c(CN2CCC(c3cccc(OCc4ccc(Cl)cc4F)n3)CC2)nc2ccc(C(=O)O)cc21` [Example 11A-54, 2-[(4-{6-[(4-chloro-2-fluorobenzyl)oxy]pyridin-2-yl}piperidin-1-yl)methyl]-1-{[(2R)-1-ethylpyrrolidin-2-yl]methyl}-1H-benzimidazole-6-carboxylic acid], the EC50 was found to be 500 nM and the Emax turned out to be 69%.

Consider `Cc1nc(Cn2c(CN3CCC(c4cccc(OCc5ccc(Cl)cc5F)n4)CC3)nc3ccc(C(=O)O)cc32)c(C)o1` [Example 11A-55, 2-[(4-{6-[(4-chloro-2-fluorobenzyl)oxy]pyridin-2-yl}piperidin-1-yl)methyl]-1-[(2,5-dimethyl-1,3-oxazol-4-yl)methyl]-1H-benzimidazole-6-carboxylic acid], for which the EC50 came out at 520 nM and the Emax was determined as 80%.

With `COC1CCN(CCn2c(CN3CCC(c4cccc(OCc5ccc(Cl)cc5F)n4)CC3)nc3ccc(C(=O)O)cc32)CC1` [Example 11A-56, 2-[(4-{6-[(4-chloro-2-fluorobenzyl)oxy]pyridin-2-yl}piperidin-1-yl)methyl]-1-[2-(4-methoxypiperidin-1-yl)ethyl]-1H-benzimidazole-6-carboxylic acid], the EC50 was 1100 nM and the Emax worked out at 47%.

For `Cc1cc(C)n(CCn2c(CN3CCC(c4cccc(OCc5ccc(Cl)cc5F)n4)CC3)nc3ccc(C(=O)O)cc32)n1` [Example 11A-57, 2-[(4-{6-[(4-chloro-2-fluorobenzyl)oxy]pyridin-2-yl}piperidin-1-yl)methyl]-1-[2-(3,5-dimethyl-1H-pyrazol-1-yl)ethyl]-1H-benzimidazole-6-carboxylic acid], the EC50 was found to be 1100 nM and the Emax amounted to 65%.

`Cc1cc(Cn2c(CN3CCC(c4cccc(OCc5ccc(Cl)cc5F)n4)CC3)nc3ccc(C(=O)O)cc32)[nH]n1` [Example 11A-58, 2-[(4-{6-[(4-chloro-2-fluorobenzyl)oxy]pyridin-2-yl}piperidin-1-yl)methyl]-1-[(3-methyl-1H-pyrazol-5-yl)methyl]-1H-benzimidazole-6-carboxylic acid]: the EC50 is 1100 nM and the Emax came out at 81%.

As to `Cc1n[nH]c(Cn2c(CN3CCC(c4cccc(OCc5ccc(Cl)cc5F)n4)CC3)nc3ccc(C(=O)O)cc32)n1` [Example 11A-59, 2-[(4-{6-[(4-chloro-2-fluorobenzyl)oxy]pyridin-2-yl}piperidin-1-yl)methyl]-1-[(3-methyl-1H-1,2,4-triazol-5-yl)methyl]-1H-benzimidazole-6-carboxylic acid], the EC50 was determined as 1400 nM and the Emax worked out at 97%.

As for `CC(c1cnn(C)n1)n1c(CN2CCC(c3cccc(OCc4ccc(Cl)cc4F)n3)CC2)nc2ccc(C(=O)O)cc21` (centres unmarked) [Example 11A-60, 2-[(4-{6-[(4-chloro-2-fluorobenzyl)oxy]pyridin-2-yl}piperidin-1-yl)methyl]-1-[1-(2-methyl-2H-1,2,3-triazol-4-yl)ethyl]-1H-benzimidazole-6-carboxylic acid], the EC50 came to 1600 nM and the Emax came to 80%.

Turning to `Cc1ccc(Cn2c(CN3CCC(c4cccc(OCc5ccc(Cl)cc5F)n4)CC3)nc3ccc(C(=O)O)cc32)cn1` [Example 11A-61, 2-[(4-{6-[(4-chloro-2-fluorobenzyl)oxy]pyridin-2-yl}piperidin-1-yl)methyl]-1-[(6-methylpyridin-3-yl)methyl]-1H-benzimidazole-6-carboxylic acid], the EC50 came to 1900 nM and the Emax was 79%.

For the compound `COCc1cc(Cn2c(CN3CCC(c4cccc(OCc5ccc(Cl)cc5F)n4)CC3)nc3ccc(C(=O)O)cc32)[nH]n1` [Example 11A-62, 2-[(4-{6-[(4-chloro-2-fluorobenzyl)oxy]pyridin-2-yl}piperidin-1-yl)methyl]-1-{[3-(methoxymethyl)-1H-pyrazol-5-yl]methyl}-1H-benzimidazole-6-carboxylic acid], the EC50 was 2200 nM and the Emax amounted to 87%.

On to `CN1CCOC(Cn2c(CN3CCC(c4cccc(OCc5ccc(Cl)cc5F)n4)CC3)nc3ccc(C(=O)O)cc32)C1` (centres unmarked) [Example 11A-63, 2-[(4-{6-[(4-chloro-2-fluorobenzyl)oxy]pyridin-2-yl}piperidin-1-yl)methyl]-1-[(4-methylmorpholin-2-yl)methyl]-1H-benzimidazole-6-carboxylic acid], for which the EC50 amounted to 2500 nM and the Emax was found to be 71%.

`O=C(O)c1ccc2nc(CN3CCC(c4cccc(OCc5ccc(Cl)cc5F)n4)CC3)n(Cc3n[nH]c(C4CC4)n3)c2c1` [Example 11A-64, 2-[(4-{6-[(4-chloro-2-fluorobenzyl)oxy]pyridin-2-yl}piperidin-1-yl)methyl]-1-[(5-cyclopropyl-1H-1,2,4-triazol-3-yl)methyl]-1H-benzimidazole-6-carboxylic acid]: the EC50 was determined as 2900 nM and the Emax was 88%.

`O=C(O)c1ccc2nc(CN3CCC(c4cccc(OCc5ccc(Cl)cc5F)n4)CC3)n(CCC3CCOCC3)c2c1` [Example 11A-65, 2-[(4-{6-[(4-chloro-2-fluorobenzyl)oxy]pyridin-2-yl}piperidin-1-yl)methyl]-1-[2-(tetrahydro-2H-pyran-4-yl)ethyl]-1H-benzimidazole-6-carboxylic acid]: the EC50 came out at 3100 nM and the Emax is 51%.

Regarding `Cc1n[nH]c(CCn2c(CN3CCC(c4cccc(OCc5ccc(Cl)cc5F)n4)CC3)nc3ccc(C(=O)O)cc32)n1` [Example 11A-66, 2-[(4-{6-[(4-chloro-2-fluorobenzyl)oxy]pyridin-2-yl}piperidin-1-yl)methyl]-1-[2-(3-methyl-1H-1,2,4-triazol-5-yl)ethyl]-1H-benzimidazole-6-carboxylic acid], the EC50 was 4000 nM and the Emax worked out at 91%.

For `Cc1nc(C(C)n2c(CN3CCC(c4cccc(OCc5ccc(Cl)cc5F)n4)CC3)nc3ccc(C(=O)O)cc32)n[nH]1` (centres unmarked) [Example 11A-67, 2-[(4-{6-[(4-chloro-2-fluorobenzyl)oxy]pyridin-2-yl}piperidin-1-yl)methyl]-1-[1-(5-methyl-1H-1,2,4-triazol-3-yl)ethyl]-1H-benzimidazole-6-carboxylic acid], the EC50 was found to be 9300 nM and the Emax was 100%.
